pEC50, pIC50: −log10 of the molar value.
Experiments:
Mus musculus = assay: Anti-inflammatory activity in BALB/c mouse model of colitis assessed as suppression of DSS-induced NF-kappa-B p65 expression in colon tissue at 200 mg/kg, IG for 8 days relative to control; format: functional; conditions: po, 192 h, time 8 day
[1] = Inhibition of NF-kappa-B signaling pathway in human HeLa cells assessed as decrease in phosphorylated NF-kappaB p65 level treated for 4 hrs by Western blot analysis; format: cell-based
Enterococcus faecalis = assay: Antibacterial activity against Enterococcus faecalis assessed as bacterial growth inhibition incubated for 24 hrs; format: functional, organism-based
Staphylococcus aureus = assay: Antibacterial activity against Staphylococcus aureus assessed as bacterial growth inhibition incubated for 24 hrs; format: functional, organism-based
Escherichia coli = assay: Antibacterial activity against Escherichia coli assessed as bacterial growth inhibition incubated for 24 hrs; format: functional, organism-based
[2] = test system: Human immunodeficiency virus 1; assay: Antiviral activity against HIV-1 infected in human C8166 cells; format: functional, organism-based; conditions: Human immunodeficiency virus 1, C8166
Rattus norvegicus [3] = assay: Anti-fibrotic activity in rat model of isoproterenol-induced myocardial fibrosis assessed as inhibition rate at 15 mg/kg relative to control; format: functional; conditions: Myocardium
Rattus norvegicus [4] = assay: Anti-fibrotic activity in rat model of unilateral ureteral obstruction-induced renal fibrosis assessed as inhibition rate at 0.15 mmol/Kg relative to control; format: functional; conditions: Kidney
Rattus norvegicus [5] = assay: Anti-fibrotic activity in rat model of bleomycin-induced lung fibrosis assessed as inhibition rate at 250 mg/kg relative to control; format: functional
Col2 = assay: Cytotoxicity against human Col2 cells assessed as cell growth inhibition by SRB assay; format: functional; conditions: read-out: ED50 (the source's name)
MCF7 [6] = assay: Cytotoxicity against human MCF7 cells assessed as cell growth inhibition by SRB assay; format: functional; conditions: read-out: ED50 (the source's name)
P388 = assay: Cytotoxicity against mouse P388 cells assessed as cell growth inhibition by SRB assay; format: functional; conditions: read-out: ED50 (the source's name)
[7] = Cytotoxicity against rat ASK cells assessed as cell growth inhibition by SRB assay; format: functional; conditions: read-out: ED50 (the source's name)
[8] = Cytotoxicity against human Lu1 cells assessed as cell growth inhibition by SRB assay; format: functional; conditions: read-out: ED50 (the source's name)
KB = assay: Cytotoxicity against human KB cells assessed as cell growth inhibition by SRB assay; format: functional; conditions: read-out: ED50 (the source's name)
[9] = Inhibition of TGF-beta1 induced mesenchymal transformation in human A549 cells assessed as inhibition rate at 0.63 uM relative to control; format: functional
[10] = Antimigratory activity against Ang II-induced human Cardiac fibroblast cells assessed as inhibition rate at 0.63 uM relative to control; format: functional
[11] = Antimigratory activity against human LX2 cells assessed as inhibition rate at 5 uM relative to control; format: functional; conditions: LX-2
K562 = assay: Antiproliferative activity against human K562 cells assessed as cell growth inhibition measured after 24 hrs by MTT assay; format: functional, cell-based; conditions: K562, 24 h
MCF7 [12] = assay: Antiproliferative activity against human MCF7 cells assessed as cell growth inhibition measured after 24 hrs by MTT assay; format: functional, cell-based
Rattus norvegicus [13] = assay: Anti-inflammatory activity against egg white-induced paw edema in rat model assessed as detumescence rate measured after 6 hrs relative to control; format: functional
HCT-116 = assay: Antiproliferative activity against human HCT-116 cells assessed as cell growth inhibition measured after 24 hrs by MTT assay; format: functional
A549 = assay: Antiproliferative activity against human A549 cells assessed as cell growth inhibition measured after 48 hrs by MTT assay; format: functional, cell-based; conditions: A549, 48 h
[14] = Antiproliferative activity against human HCT cell line assessed as cell growth inhibition measured after 48 hrs by MTT assay; format: functional, cell-based
J82 = assay: Antiproliferative activity against human J82 cells assessed as cell growth inhibition measured after 48 hrs by MTT assay; format: functional, cell-based; conditions: J82, 48 h
HepG2 = assay: Antiproliferative activity against human HepG2 cells assessed as cell growth inhibition measured after 48 hrs by MTT assay; format: functional, cell-based; conditions: HepG2, 48 h
[15] = Antiproliferative activity against human NTUB1 cells assessed as cell growth inhibition measured after 48 hrs by MTT assay; format: functional, cell-based; conditions: NTUB1, 48 h
T-24 = assay: Antiproliferative activity against human T24 cells assessed as cell growth inhibition measured after 48 hrs by MTT assay; format: functional, cell-based; conditions: T-24, 48 h
NB-4 = assay: Antiproliferative activity against human NB-4 cells assessed as cell growth inhibition measured after 48 hrs by MTT assay; format: functional, cell-based; conditions: NB-4, 48 h
MCF7 [16] = assay: Antiproliferative activity against human MCF7 cells assessed as cell growth inhibition measured after 48 hrs by MTT assay; format: functional, cell-based; conditions: MCF7, 48 h
MGC-803 = assay: Antiproliferative activity against human MGC-803 cells assessed as cell growth inhibition measured after 48 hrs by MTT assay; format: functional, cell-based; conditions: MGC-803, 48 h

For `C=C1CCC2[C@](C)(COC(C)=O)[C@H](OC(C)=O)CC[C@@]2(C)[C@@H]1C/C=C1/C(=O)OC[C@H]1OC(C)=O` (stereo partly specified), the inhibition in vivo at 200 mg/kg (Mus musculus) was 50.4%.

With `C=C1CC[C@@H]2[C@](C)(CO)[C@H](O)CC[C@@]2(C)[C@@H]1C/C=C1/C(=O)OC[C@@H]1Oc1ccc([N+](=O)[O-])cc1OC` the pEC50 [1] was 5.70.

With `C=C1CCC2[C@](C)(CO)C(=O)CC[C@@]2(C)[C@@H]1C/C=C1/C(=O)OC[C@@H]1Oc1cccc2cccnc12` (stereo partly specified) the pIC50 (Enterococcus faecalis) was 5.04, the pIC50 (Staphylococcus aureus) was 4.56 and the pIC50 (Escherichia coli) was 4.55.

Work on `C=C1CCC2[C@](C)(CO)/C(=N\O)CC[C@@]2(C)[C@@H]1/C=C/C1=CCOC1=O` (stereo partly specified) yielded a pIC50 [2] of 4.39.

`C=C1CCC2[C@](C)(CO)[C@H](O)CC[C@@]2(C)[C@@H]1/C=C/C1=CC(=C\c2ccc(Cl)cc2)/OC1=O` (stereo partly specified) showed an inhibition in vivo at 15 mg/kg (Rattus norvegicus [3]) greater than 90%, an inhibition in vivo at 150 µmol/kg (Rattus norvegicus [4]) greater than 85% and an inhibition in vivo at 250 mg/kg (Rattus norvegicus [5]) greater than 85%.

For `C=C1CC[C@@H]2[C@](C)(CO[Si](C)(C)C(C)(C)C)[C@H](OC(C)=O)CC[C@@]2(C)[C@@H]1CC(OC(C)=O)C1=CCOC1=O` (stereo partly specified), the pEC50 (Col2) was 5.70, the pEC50 (MCF7 [6]) was 5.67 and the pEC50 (P388) was 6.26. The pEC50 [7] was 5.70, the pEC50 [8] was 5.68 and the pEC50 (KB) was 5.63.

`C[C@@]12CCC3[C@](C)(CO)[C@H](O)CC[C@@]3(C)[C@@H]1CC(C1=C/C(=C\c3ccc(Cl)cc3)OC1=O)O2` (stereo partly specified) gave an inhibition at 0.63 µM [9] greater than 70%, an inhibition at 0.63 µM [10] greater than 65% and an inhibition at 5 µM [11] greater than 60%.

In the case of `C=C1CCC2[C@](C)(CO)[C@H](O)CC[C@@]2(C)[C@@H]1C/C=C1/C(=O)OC[C@@H]1Oc1cccc2cccnc12` (stereo partly specified), the pIC50 (Enterococcus faecalis) was 5.20, the pIC50 (Staphylococcus aureus) was 4.43 and the pIC50 (Escherichia coli) was 4.67.

In the case of `C=C1CCC2[C@]3(C)COC(c4ccc(OCc5cn(-c6ccc(C(C)=O)cc6)nn5)cc4)O[C@@H]3CC[C@@]2(C)[C@@H]1C/C=C1/C(=O)OCC1O` (stereo partly specified), the pIC50 (K562) was 5.10.

Compound `C=C1CCC2[C@](C)(CO)[C@H](OC(=O)CCC(=O)OC(C)CCOc3no[n+]([O-])c3S(=O)(=O)c3ccccc3)CC[C@@]2(C)[C@@H]1/C=C/C1=CCOC1=O` (stereo partly specified) has a pIC50 (K562) of 5.81 and a pIC50 (MCF7 [12]; MCF7, 24 h) of 5.54.

In the case of `C=C1CCC2[C@](C)(CO)[C@H](O)CC[C@@]2(C)[C@@H]1CCC1=CCOC1=O` (stereo partly specified), the “inhibition (INH)” value (Rattus norvegicus [13]) was 87.53%.

For `C=C1CCC2[C@]3(C)COC(c4ccccc4Br)O[C@@H]3CC[C@@]2(C)[C@@H]1C/C=C1/C(=O)OC[C@H]1O` (stereo partly specified), the GI50 (HCT-116) was 4.9 µM and the GI50 (MCF7 [12]; MCF7, time 24 hrs) was 5.3 µM.

Work on `CC1=C2[C@H]3O[C@]34CC[C@@H]3[C@](C)(COC(=O)c5ccccc5)[C@H](OC(=O)c5ccccc5)CC[C@@]3(C)[C@@H]4[C@H]3O[C@@]23OC1=O` yielded a pIC50 (A549) of 5.69, a pIC50 [14] of 6.03 and a pIC50 (J82) of 5.69. For the same compound, the pIC50 (HepG2) was 5.64, the pIC50 [15] was 6.26 and the pIC50 (T-24) was 5.98. The pIC50 (NB-4) was 6.06, the pIC50 (MCF7 [16]) was 5.92 and the pIC50 (MGC-803) was 5.73.

Source: ChEMBL document CHEMBL5236551, “Andrographolide and its derivatives: Current achievements and future perspectives” (Eur J Med Chem, 2021)
